From US10487053B2, “Acid addition salt of 1-(5-(2,4-difluorophenyl)-1-((3-fluorophenyl)sulfonyl)-4-methoxy-1H-pyrrol-3-yl)-N-methylmethanamine” (Daewoong Pharmaceutical Co., Ltd., priority 2016, dated 2019)

Experiments:
Solubility test in water = type: physicochemical; settings: deionized water, thermodynamic from solid
Description: For the solubility test in water, a sample of less than 10 mg was first precisely weighed and taken, and placed into a vial, to which 50 μl of deionized water was added, shaking for 30 seconds and ultrasonic shaking for 1 minute were carried out, and these processes were repeated several times. The water solubility was calculated by measuring the amount of water used to dissolve all the samples.

[1] = Stability confirmation test (impurity formation during storage under severe conditions, liquid chromatography); type: physicochemical
Description: The stability test was carried out for the acid addition salts prepared in the Examples to evaluate the degree to which impurities were formed during storage under severe conditions (moisture-proof condition and high-humidity exposure condition). The results of the stability test under the moisture-proof condition were shown in Table 2 below, and the results of the stability test under the high-humidity exposure condition were shown in Table 3 below. For the stability test, vials containing 10 mg of each sample which was precisely weighed and taken were prepared in the planned quantity, and they were stored by dividing into the moisture-proof condition (60° C. and less than 10% relative humidity) and under the high-humidity exposure condition (60° C. and 95% relative humidity). However, under the high-humidity exposure condition, a stopper of the vial was not used to keep so that the sample is in sufficient contact with a moisture in the air. At a fixed point of time after the initiation of the test, two vials per point of time were taken (number of samples per test n=2). 10 ml of methanol was added to each vial to dissolve the sample, which was then centrifuged. The resulting supernatant was analyzed using a liquid chromatography. The peak area was determined by integration for all detected peaks, and the relative peak area for the main component and the total impurity was calculated and expressed as an average value.

[2] = high-humidity exposure condition (60° C. and 95% relative humidity), After 1 week
[3] = high-humidity exposure condition (60° C. and 95% relative humidity), After 2 weeks
[4] = high-humidity exposure condition (60° C. and 95% relative humidity), After 4 weeks
[5] = high-humidity exposure condition (60° C. and 95% relative humidity), Initial
[6] = moisture-proof condition (60° C. and less than 10% relative humidity), After 2 weeks
[7] = moisture-proof condition (60° C. and less than 10% relative humidity), After 4 weeks
[8] = moisture-proof condition (60° C. and less than 10% relative humidity), Initial

| Structure (SMILES) | solubility (Solubility test in water) [µg/mL] | Peak area of main component (%) [1, 2] [%] | Peak area of total impurities (%) [1, 2] [%] | Peak area of main component (%) [1, 3] [%] | Peak area of total impurities (%) [1, 3] [%] | Peak area of main component (%) [1, 4] [%] | Peak area of total impurities (%) [1, 4] [%] | Peak area of main component (%) [1, 5] [%] | Peak area of total impurities (%) [1, 5] [%] | Peak area of main component (%) [1, 6] [%] | Peak area of total impurities (%) [1, 6] [%] | Peak area of main component (%) [1, 7] [%] | Peak area of total impurities (%) [1, 7] [%] | Peak area of main component (%) [1, 8] [%] | Peak area of total impurities (%) [1, 8] [%] |
| --- | --- | --- | --- | --- | --- | --- | --- | --- | --- | --- | --- | --- | --- | --- | --- |
| CNCc1cn(S(=O)(=O)c2cccc(F)c2)c(-c2ccc(F)cc2F)c1OC.Cl [Example 1, 1-(5-(2,4-difluorophenyl)-1-((3-fluorophenyl)sulfonyl)-4-methoxy-1H-pyrrol-3-yl)-N-methylmethanamine hydrochloride] | 11100 | 99.81 | 0.19 | 99.80 | 0.20 | 99.80 | 0.20 | 99.82 | 0.18 | 99.80 | 0.19 | 99.80 | 0.20 | 99.82 | 0.18 |
| CNCc1cn(S(=O)(=O)c2cccc(F)c2)c(-c2ccc(F)cc2F)c1OC.O=C(O)CCC(=O)O [Example 2, 1-(5-(2,4-difluorophenyl)-1-((3-fluorophenyl)sulfonyl)-4-methoxy-1H-pyrrol-3-yl)-N-methylmethanamine succinate] | 7200 | 99.56 | 0.44 | 99.53 | 0.47 | 99.47 | 0.54 | 99.55 | 0.45 | 99.61 | 0.39 | 99.55 | 0.45 | 99.55 | 0.45 |
| CNCc1cn(S(=O)(=O)c2cccc(F)c2)c(-c2ccc(F)cc2F)c1OC.O=C(O)C(O)C(O)C(=O)O [Example 3, 1-(5-(2,4-difluorophenyl)-1-((3-fluorophenyl)sulfonyl)-4-methoxy-1H-pyrrol-3-yl)-N-methylmethanamine tartrate] | 6900 | 99.48 | 0.52 | 99.43 | 0.57 | 99.23 | 0.77 | 99.52 | 0.48 | 99.54 | 0.46 | 99.48 | 0.52 | 99.52 | 0.48 |
| CNCc1cn(S(=O)(=O)c2cccc(F)c2)c(-c2ccc(F)cc2F)c1OC.O=C(O)/C=C/C(=O)O [Example 4, 1-(5-(2,4-difluorophenyl)-1-((3-fluorophenyl)sulfonyl)-4-methoxy-1H-pyrrol-3-yl)-N-methylmethanamine fumarate] | 1730 to 2600 | 99.40 | 0.60 | 99.32 | 0.68 | 99.30 | 0.70 | 99.38 | 0.62 | 99.36 | 0.64 | 99.37 | 0.63 | 99.38 | 0.62 |
| CNCc1cn(S(=O)(=O)c2cccc(F)c2)c(-c2ccc(F)cc2F)c1OC [Preparation Example, 1-(5-(2,4-difluorophenyl)-1-((3-fluorophenyl)sulfonyl)-4-methoxy-1H-pyrrol-3-yl)-N-methylmethanamine] | < 160 | – | – | – | – | – | – | – | – | – | – | – | – | – | – |
